Data set [1] in a line: Therapeutic equivalence during continuous intravenous infusion. In kind it is in vivo. The text has this:
The optimal infusion rate for L-DOPA methyl ester was 2.7 times that required for L-DOPA (Stocchi et al. 1992, Movement Disorders, 7: 249-256).

Data set [2] relates to dopamine output in the striatum. Put plainly: Striatal dopamine output measured by microdialysis. The following applies: for Increase of dopamine in the striatum compared to L-DOPA (comparison of AUC0-t): 50 mg/kg i.p., relative to L-DOPA; for Increase of dopamine in the striatum compared to L-DOPA (comparison of AUC0-t) / Baseline corrected dopamine output in the striatum, AUC0-t: Male Wistar rats; for Baseline corrected dopamine output in the striatum, AUC0-t: 50 mg/kg intraperitoneal, 10 mg/kg Carbidopa i.p. 30 min before, microdialysis in dorsolateral striatum. In kind it is in vivo, Male Wistar rats. Here is the method:
The striatal output of dopamine was measured in Male Wistar rats following intraperitoneal administration of 50 mg/kg L-2-Amino-3-(3,4-dihydroxyphenyl) propionic acid (L-DOPA), L-2-Amino-2,3,3-trideutero-3-(3,4-dihydroxyphenyl) propionic acid (WO-A 2004/056724, Example 6) and L-2-Amino-2,3-dideutero-3-(3,4-dihydroxyphenyl) propionic acid (Example 6), respectively. Male wistar rats (BK Universal, Sollentuna, Sweden) weighing about 300 g at the time of experiment were anaesthetized with a cocktail containing fentanyl citrate (0.39 mg/kg) and fluanisone (12.5 mg/kg, Hypnorm®, Janssen-Cilag) and midazolam (6.25 mg/kg, Dormicum®, Roche) diluted in distilled water (1:1:2; 5 ml/kg i.p.) and mounted in a stereotaxic frame. Dialysis probes were implanted in the dorsolateral striatum (AP: +0.6: ML+3.0: DV −6.2 relative to bregma and the dural surface according to the atlas of Paxinos and Watson (1998)). Dialysis occurs through a semipermeable membrane (Filtral AN69, Hospal Industrie, France) with an active surface length of 3.5 mm. Dialysis experiments were conducted approximately 48 h after surgery in freely moving rats. The rats received 30 min before administration of test items 10 mg/kg Carbidopa, (i.p.). The dialysis probe was perfused with a physiological perfusion solution (Apoteksbolaget, Sweden) at a rate of […] set by a microinfusion pump (Harvard Apparatus, Holliston, Mass.). Dialysate was collected over 15 min intervals and automatically injected into a high performance liquid chromatography (HPLC) system. On-line quantification of dopamine in the dialysate was accomplished by electro-chemical detection (ESA, Chelmsford, Mass.). The location of microdialysis probes was verified in slices of formalin-fixed tissue stained with neutral red. The baseline corrected concentrations (fmol/min) were plotted over the time.

The subject of data set [3] is striatal output of norepinephrine. Put plainly: Striatal output of norepinephrine. The data set is classed as in vivo. The following applies: compared to L-DOPA.
Another data set concerns dopamine in the striatum. The following applies: male Wistar rats; known from WO-A 2004/056724; cited from earlier work.
Data set [4] relates to Parkinson's disease exhibiting severe on-off phenomena. The following applies: continuous intravenous infusion, patients with Parkinson's disease with severe on-off phenomena; cited from earlier work.
The conditions of data set [5]: cited from earlier work.
The conditions of data set [6]: given orally or intraperitoneally, on a molar basis; cited from earlier work.

`[2H][C@@H](c1ccc(O)c(O)c1)[C@]([2H])(N)C(=O)OC` [Example 7, L-2-Amino-2,3(S)-dideutero-3-(3,4-dihydroxyphenyl)methyl propionate]: the “Therapeutic equivalence to L-2-Amino-2,3-dideutero-3-(3,4-dihydroxyphenyl) propionic acid” value in data set [1] is on record as “therapeutically equivalent”.

Regarding `[2H][C@@H](c1ccc(O)c(O)c1)[C@]([2H])(N)C(=O)O` [Example 6, L-2-Amino-2,3(S)-dideutero-3-(3,4-dihydroxyphenyl) propionic acid], in data set [2], the “Increase of dopamine in the striatum compared to L-DOPA (comparison of AUC0-t)” value is listed as “threefold higher” and the “Baseline corrected dopamine output in the striatum, AUC0-t” value (shortened to “Baseline corrected dopamine output”) is recorded as 685 fmol/min*min. Also, in data set [2] (Example 15 and Table 1), the “Increase of dopamine in the striatum compared to L-2-Amino-2,3,3-trideutero-3-(3,4-dihydroxyphenyl) propionic acid” value is on record as “significantly more”. Besides, in data set [3], the “Striatal output / formation of norepinephrine” value was “does not block the formation of norepinephrine”.

Consider `[2H]C([2H])(c1ccc(O)c(O)c1)[C@]([2H])(N)C(=O)O` [L-2-Amino-2,3,3-trideutero-3-(3,4-dihydroxyphenyl) propionic acid], for which the “Increase of dopamine in the striatum compared to non-deuterated L-DOPA” value in the data set with dopamine in the striatum is reported as “significantly more”. Further, in data set [2], the “Increase of dopamine in the striatum compared to L-DOPA (comparison of AUC0-t)” value is “about twice as high” and the “Baseline corrected dopamine output” value is given as 533 fmol/min*min. The “Striatal output / formation of norepinephrine” value in data set [3] is reported as “reduces the striatal output of norepinephrine”.

In the case of `N[C@@H](Cc1ccc(O)c(O)c1)C(=O)O` [L-2-Amino-3-(3,4-dihydroxyphenyl) propionic acid], in data set [2], the “Baseline corrected dopamine output” value came out at 228 fmol/min*min.

As to `COC(=O)[C@@H](N)Cc1ccc(O)c(O)c1` [L-DOPA methyl ester], the “Optimal infusion rate relative to that required for L-DOPA” value in data set [4] was 2.7 times. Besides, in data set [5], the Solubility entry is “highly soluble”. Moreover, the “Equivalence to L-DOPA in animal experiments” value in data set [6] is listed as “equivalent on a molar basis to L-DOPA”.

The values are drawn from patent US8247603B2, “Deuterated catecholamine derivatives and medicaments comprising said compounds” (Birds Pharma GmbH Berolina Innovative, priority 2006, dated 2012).
